# Experimental data published in US7989495B2, “Compositions and methods for inhibiting NF-κB mediated tumorigenicity and adhesion dependent survival of cancer cells” (University of Utah Research Foundation, priority 2002, dated 2011).
# “And” between values parts separate entries of the source, which are not always exact repeats. Equal entries are not always repeated.
# Tests used:
# [1] = tested on: transiently suspended Caco-2 cells; assay: Apoptosis (annexin V) of transiently suspended cells allowed to readhere; assay type: cell-based; conditions: treated
# Protocol: Single cell suspensions were plated at 100,000 cells per well in 24-well plates in media containing DMSO, BAY 11-7082, BAY 11-7085, or MG-132 for 8-24 hours in an incubator. Alternatively, DMSO, BAY 11-7082, BAY 11-7085, or MG-132 were added to cells that were confluent and adherent for several days. The nonadherent cells were aspirated off with the media and spun for 3 minutes at 2,000 rpm in 15 ml polypropylene tubes. The adherent cells were washed twice with PBS, dispersed in trypsin, and spun down for 3 minutes at 2,000 rpm in 15 ml polypropylene tubes. The nonadherent and adherent cells were resuspended in 1× binding buffer (10 mM HEPES/NaOH, pH 7.4, 140 mM NaCl, and 2.5 mM CaCl2) to a final concentration of 10^6 cells/ml. […] 400 μl of binding buffer was added to each tube and the cells were analyzed by flow cytometry immediately. The percent of apoptosis was determined as the percent of annexin V-positive, propidium iodide-negative cells of the total cells counted.
# Since trypsin can activate protease-activated receptor-2 in colon cancer cell lines, which then results in increased cell proliferation, (Darmoul et al., 2001) NF-κB activation was determined in adherent and confluent DLD-1, HCT-116, Caco-2 and HT-29 cells that were removed from plastic dishes by trypsin or scraping. […]
# [2] = tested on: HCT-116 cells injected intraperitoneally; assay: Intraabdominal seeding (metastasis) model in athymic mice; assay type: in vivo; conditions: HCT-116 intraperitoneal; pretreated, then twice weekly; after 21 days
# Description: (§1) FIGS. 6A, B, C show tumor implants of the liver of three athymic mice 21 days after receiving intraperitoneal injections of HT-29 cells. The mice were pretreated and treated for a total of 21 days with DMSO twice weekly. […] The mouse was pretreated and treated for a total of 21 days with DMSO twice weekly. […] This section was obtained from the tumor implant from the mouse in FIG. 6A. […] FIG. 6G, (liver), FIG. 6H, (abdominal wall), and FIG. 6I, (intestinal) show tumor implants in three athymic mice 21 days after receiving intraabdominal injections of HCT-116 cells. All of the mice were treated with 5 mg/kg of BAY 11-7085 twice weekly.
# (§2) HT-29 and HCT-116 cells were harvested in 0.25% trypsin-PBS-EDTA, washed once in media and PBS, and resuspended in PBS at 1 million cells per 200 μL. One million cells were injected either subcutaneously in the backs or intraperitoneally in 5 week old female nu/nu athymic mice (Charles River Labs). For the mice with subcutaneous tumors, the tumors were allowed to establish themselves for 10 days after which they were randomized to BAY 11-7085 or DMSO. For the mice with intraperitoneal tumors, the mice received DMSO or BAY 11-7085 (5 mg/kg) 24 hours before the cancer cells were injected intrapentoneally. All mice received BAY 11-7085 (5 mg/kg) or an equal volume of DMSO (˜200 μL) twice weekly for 21-32 days. Subcutaneous tumor sizes were determined by measuring the length and width with calipers. These studies were approved by the U. of Utah Institutional Review Board and Institutional Animal Care and Use Committee and performed in the Animal Resource Center. Mice were euthanized when they experienced a greater than 10% loss in body weight or if they appeared ill. […]
# (§3) Since BAY 11-7085 induced apoptosis of readherent HT-29 cells, an in vivo model was used to test the ability of the drug to prevent metastasis by seeding of intraabdominal tissue with colon cancer cells. […] Seeding results from the transient suspension of cancer cells, through a loss of adhesion either naturally ro because of surgical displacement, followed by readhesion to other tissues. […]
# [3] = tested on: HT-29 cells injected intraperitoneally; assay: as above; assay type: in vivo; conditions: HT-29 intraperitoneal; pretreated 24 hours earlier, then twice weekly, 21 days; n = 6
# Description: as §1, §2, §3
compound,measurement,setting,value
"CC(C)(C)c1ccc(S(=O)(=O)/C=C/C#N)cc1 [BAY 11-7085, (2E)-3-[4-(tertiarybutylphenyl)sulfonyl]-2-propenenitrile]",BAY 11-7085-induced apoptosis during readhesion,[1],showed a moderate increase
same,metastases of parietal and visceral peritoneum,[2],clear evidence of metastases
same,Liver Metastases (mice with metastases / mice),[3],none of the 6 and 0/6
same,Peritoneal Metastases (mice with metastases / mice),[3],2 of 6 and 2/6
